# Measurements from patent publication US20260285850A1, “SUBSTITUTED OXAZOLIDINONES AND IMIDAZOLINONES AS HERBICIDES” (FMC CORPORATION, priority 2023, published 2026).
# How the values were obtained:
# Type in all cases: in vivo
# [1] = test system: green foxtail (Setaria viridis); experiment: Test A postemergence application, visual injury rating 0-100; details: 10 days
# Summary of the method: (§1)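 Visual injury ratings (0, no effect; 100, complete control) were assigned relative to untreated plants 10 days after treatment. Test chemicals, formulated with a surfactant-containing non-phytotoxic solvent, were applied in loam-sand soil either as a directed soil spray before emergence or to emerged plants, and plants were kept in a greenhouse.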
# [2] = test system: oat, wild (wild oat, Avena fatua); experiment: as above; details: 10 days
# Summary of the method: as §1
# [3] = test system: ryegrass, Italian (italian ryegrass, Lolium multiflorum); experiment: as above; details: 10 days
# Summary of the method: as §1
# [4] = test system: palmer (palmer amaranth, palmer pigweed, Amaranthus palmeri); experiment: as above; details: 10 days
# Summary of the method: as §1
# kochia (Bassia scoparia) [5] = experiment: as above; details: 10 days
# Summary of the method: as §1
# [6] = test system: horseweed (Erigeron canadensis); experiment: as above; details: Postemergence, 125 g ai/ha, 10 days; 0 is no effect, 100 is complete control
# Summary of the method: as §1
# corn (Zea mays) [7] = experiment: as above; details: 10 days
# Summary of the method: as §1
# [8] = test system: galium (catchweed bedstraw, Galium aparine); experiment: as above; details: 10 days
# Summary of the method: as §1
# [9] = test system: blackgrass (Alopecurus myosuroides); experiment: as above; details: 10 days
# Summary of the method: as §1
# [10] = test system: ragweed (common ragweed, Ambrosia artemisiifolia); experiment: as above; details: 10 days
# Summary of the method: as §1
# [11] = test system: barnyardgrass (Echinochloa crus-galli); experiment: as above; details: 10 days
# Summary of the method: as §1
# soybean (Glycine max) [12] = experiment: as above; details: 10 days
# Summary of the method: as §1
# [13] = test system: wheat (Triticum aestivum); experiment: as above; details: 10 days
# Summary of the method: as §1
# [14] = test system: green foxtail (Setaria viridis); experiment: Test A preemergence soil spray, visual injury rating 0-100; details: 10 days, 0 = no effect, 100 = complete control
# Summary of the method: as §1
# [15] = test system: oat, wild (wild oat, Avena fatua); experiment: as above; details: 10 days, 0 = no effect, 100 = complete control
# Summary of the method: as §1
# [16] = test system: ryegrass, Italian (italian ryegrass, Lolium multiflorum); experiment: as above; details: 10 days, 0 = no effect, 100 = complete control
# Summary of the method: as §1
# [17] = test system: palmer (palmer amaranth, palmer pigweed, Amaranthus palmeri); experiment: as above; details: 10 days, 0 = no effect, 100 = complete control
# Summary of the method: as §1
# kochia (Bassia scoparia) [18] = experiment: as above; details: 10 days, 0 = no effect, 100 = complete control
# Summary of the method: as §1
# corn (Zea mays) [19] = experiment: as above; details: 10 days, 0 = no effect, 100 = complete control
# Summary of the method: as §1
# [20] = test system: blackgrass (Alopecurus myosuroides); experiment: as above; details: 10 days, 0 = no effect, 100 = complete control
# Summary of the method: as §1
# [21] = test system: ragweed (common ragweed, Ambrosia artemisiifolia); experiment: as above; details: 10 days, 0 = no effect, 100 = complete control
# Summary of the method: as §1
# [22] = test system: barnyardgrass (Echinochloa crus-galli); experiment: as above; details: 10 days, 0 = no effect, 100 = complete control
# Summary of the method: as §1
# soybean (Glycine max) [23] = experiment: as above; details: 10 days, 0 = no effect, 100 = complete control
# Summary of the method: as §1
# [24] = test system: wheat (Triticum aestivum); experiment: as above; details: 10 days, 0 = no effect, 100 = complete control
# Summary of the method: as §1
# [25] = test system: sedge, umbrella (small-flower umbrella sedge, Cyperus difformis); experiment: Test B flooded paddy test, visual plant response rating 0-100; details: 250 g ai/ha, Flood, applied to paddy water, evaluated after 13 days
# Summary of the method: (§2)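 Each species was raised to two leaves before flooding to a 3 cm depth and dosing the water with compound. Injury was assessed by eye after 13 days under greenhouse conditions.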
# [26] = test system: ducksalad (Heteranthera limosa); experiment: as above; details: 250 g ai/ha, Flood, applied to paddy water, evaluated after 13 days
# Summary of the method: as §2
# rice (Oryza sativa) = experiment: as above; details: 250 g ai/ha, Flood, applied to paddy water, evaluated after 13 days
# Summary of the method: as §2
# [27] = test system: barnyardgrass (Echinochloa crusgalli); experiment: as above; details: 250 g ai/ha, Flood, applied to paddy water, evaluated after 13 days
# Summary of the method: as §2
# [28] = 31 g ai/ha, postemergence, 0 = no effect, 100 = complete control
# [29] = Postemergence, 125 g ai/ha, 0 is no effect, 100 is complete control
smiles,measurement,setting,value
CC(C)OC(=O)C1CCC(NC(=O)C2(C)CN(c3cc(F)cc(Cl)c3)C(=O)O2)C1 (stereo not drawn) [Compound 2],"Foxtail, Green plant response rating (0-100)",[1]; [28],0
same,"Foxtail, Green plant response rating (0 to 100 scale)",[1]; [29],90
same,"Oat, Wild plant response rating (0-100)",[2]; [28],70
same,"Oat, Wild plant response rating (0 to 100 scale)",[2]; [29],90
same,"Ryegrass, Italian plant response rating (0-100)",[3]; [28],50
same,"Ryegrass, Italian plant response rating (0 to 100 scale)",[3]; [29],90
same,"Amaranth, Palmer plant response rating (0-100)",[4]; [28],0
same,"Amaranth, Palmer / Pigweed, Palmer plant response rating (0 to 100 scale)",[4]; [29],50
same,Kochia plant response rating (0-100),kochia (Bassia scoparia) [5]; [28],0
same,Kochia plant response rating (0 to 100 scale),kochia (Bassia scoparia) [5]; [29],80
same,Horseweed plant response rating (0 to 100 scale),[6],0
same,Corn plant response rating (0-100),corn (Zea mays) [7]; [28],40
same,Corn plant response rating (0 to 100 scale),corn (Zea mays) [7]; [29],100
same,Galium plant response rating (0-100),[8]; [28],60
same,Galium plant response rating (0 to 100 scale),[8]; [29],90
same,Blackgrass plant response rating (0-100),[9]; [28],60
same,Blackgrass plant response rating (0 to 100 scale),[9]; [29],70
same,Ragweed plant response rating (0-100),[10]; [28],20
same,Ragweed plant response rating (0 to 100 scale),[10]; [29],50
same,Barnyardgrass plant response rating (0-100),[11]; [28],50
same,Barnyardgrass plant response rating (0 to 100 scale),[11]; [29],100
same,Soybean plant response rating (0-100),soybean (Glycine max) [12]; [28],20
same,Soybean plant response rating (0 to 100 scale),soybean (Glycine max) [12]; [29],70
same,Wheat plant response rating (0-100),[13]; [28],80
same,Wheat plant response rating (0 to 100 scale),[13]; [29],90
same,"Foxtail, Green plant response rating (0-100)",[14]; 31 g ai/ha,0
same,"Foxtail, Green plant response rating (0 to 100 scale)",[14]; 125 g ai/ha,90
same,"Oat, Wild plant response rating (0-100)",[15]; 31 g ai/ha,0
same,"Oat, Wild plant response rating (0 to 100 scale)",[15]; 125 g ai/ha,70
same,"Ryegrass, Italian plant response rating (0-100)",[16]; 31 g ai/ha,20
same,"Ryegrass, Italian plant response rating (0 to 100 scale)",[16]; 125 g ai/ha,80
same,"Amaranth, Palmer plant response rating (0-100)",[17]; 31 g ai/ha,20
same,"Amaranth, Palmer plant response rating (0 to 100 scale)",[17]; 125 g ai/ha,80
same,Kochia plant response rating (0-100),kochia (Bassia scoparia) [18]; 31 g ai/ha,0
same,Kochia plant response rating (0 to 100 scale),kochia (Bassia scoparia) [18]; 125 g ai/ha,70
same,Corn plant response rating (0-100),corn (Zea mays) [19]; 31 g ai/ha,20
same,Corn plant response rating (0 to 100 scale),corn (Zea mays) [19]; 125 g ai/ha,70
same,Blackgrass plant response rating (0-100),[20]; 31 g ai/ha,0
same,Blackgrass plant response rating (0 to 100 scale),[20]; 125 g ai/ha,50
same,Ragweed plant response rating (0-100),[21]; 31 g ai/ha,30
same,Ragweed plant response rating (0 to 100 scale),[21]; 125 g ai/ha,0
same,Barnyardgrass plant response rating (0-100),[22]; 31 g ai/ha,10
same,Barnyardgrass plant response rating (0 to 100 scale),[22]; 125 g ai/ha,90
same,Soybean plant response rating (0-100),soybean (Glycine max) [23]; 31 g ai/ha,0
same,Soybean plant response rating (0 to 100 scale),soybean (Glycine max) [23]; 125 g ai/ha,20
same,Wheat plant response rating (0-100),[24]; 31 g ai/ha,50
same,Wheat plant response rating (0 to 100 scale),[24]; 125 g ai/ha,90
same,"Plant response rating, Sedge, Umbrella (0 to 100 scale, 0 is no effect and 100 is complete control)",[25],75
same,"Plant response rating, Ducksalad (0 to 100 scale, 0 is no effect and 100 is complete control)",[26],65
same,"Plant response rating, Rice (0 to 100 scale, 0 is no effect and 100 is complete control)",rice (Oryza sativa),20
same,"Plant response rating, Barnyardgrass (0 to 100 scale, 0 is no effect and 100 is complete control)",[27],95
